{
  "source": "patent US6936723B2",
  "about": "“Synthetic salicylihalamides, apicularens and derivatives thereof” (Board of Regents, The University of Texas System, priority 2000, dated 2005)",
  "key": {"[1]": {"biological_target": "T1, purified reconstituted V-ATPase from bovine brain (Bos taurus, UniProt P23956+P61420+Q29466+Q2TA24)", "T1 construct": "from tissue; host or cells: bovine brain", "experiment": "Inhibition of purified reconstituted V-ATPase (proton pumping)", "type": "biochemical", "from_the_text": "Therefore, the present invention provides a method for inhibiting the proton-pumping activity of V-ATPase by contacting V-ATPase, either in vitro or in vivo with the compounds of the present invention. […] See Boyd, M. R. et al., J Pharmacol. Exp. Ther. 297, 114-120 (2001); see also, PCT publication WO 00/51589 of Boyd et al. V-ATPase is composed of an ATPase domain and a proton translocating membraneous channel. […] See Crider, Xie and Stone, J. Biol. Chem. 269:17379-17381 (1994) for the experimental procedure for binding. […] See Example 7 and Table 5 below. See also Bill. Crider, Xie and Stone, J Biol. Chem. 269:17379-17381 (1994).\nOthers in the art typically use crude membrane preparations to assay V-ATPase activity."}, "[2]": {"system": "SK-MEL-28 cells", "experiment": "Anti-cancer activity against SK-MEL-28 cells", "type": "cell-based, human", "details": "at 10 nM", "from_the_text": "The inventor has accomplished the first synthesis of both […] and (−)-salicylihalamide A. The synthesis utilizes a highly efficient, trans-selective ring-closing olefin metathesis for the assembly of the benzolactone skeleton and can be readily adapted to obtain a variety of analogs. […] This cell line is one of the cell lines in the NCI 60 cell line screen.\nThe absolute configuration of natural salicylihalamide A (1a) was originally misassigned in Boyd et al., 1997. The correct configuration is represented by structure 89. The ultimate proof for this assignment came from a crystallographic analysis of a p-bromobenzoate derivative of salicylihalamide 90, prepared from 73 in a manner similar to the synthesis of 74. […] (−)-salicylihalamide A does have chemotherapeutic activity. […] This cell line is one of the cell lines in the NCI 60 cell line screen."}, "[3]": {"system": "NCI 60-cell line panel", "experiment": "NCI 60-cell line human tumor screen (sulforhodamine B)", "type": "cell-based", "details": "48 hours incubation; 10^−6 to 10^−10 molar", "from_the_text": "The NCI 60-cell line human tumor screen is a measure of the effectiveness of a compound for inhibiting or killing various human cancers. It is a set of 60 different cancer cell lines against which chemical compounds can be tested against to determine if the compound has anti-cancer activity. Each compound has an individual “fingerprint” based on effectiveness in killing each of the 60 cancer cell lines.\nThe anti-cancer activity of the synthesized (+)- and (−)-salicylihalamide-A compounds of the present invention (compounds 78 in FIG. 10 and 301a/301c in FIG. 14.) was indistinguishable. […] Salicylihalamide derivatives, showing increased stability over natural salicylihalamide, were tested in the NCI 60 cell-line screen. This screen is an art recognized model. Prior to assay, synthesized compounds were stored in dimethylsulfoxide at −70° C. Five different test concentrations of each compound were prepared by diluting the stock solution into complete medium. Sample concentrations were 2× the final concentration and range from 10^−6 and 10^−10 molar. An aliquot of each concentration of each compound was added to separate microtiter wells containing the respective cell lines in culture medium. The plates were incubated for 48 hours at 37° C. with 5% CO2 and 100% humidity. Adherent cells were fixed by addition of cold 50% trichloracetic acid and incubation at 4° C. for 60 minutes. Suspended cells were fixed to the bottom of the well by addition of 80% trichloracetic acid. The supernatant was removed from each well and then each well was washed with deionized water and allowed to dry. Sulforhodamine B solution was added to each well and allowed to incubate for 10 minutes at room temperature. Unbound sulforhodamine B was removed by washing with 1% acetic acid. The wells were allowed to dry. Bound sulforhodamine B was solubilized using 10 mM Tris base and the optical density at 515 nanometers was determined."}, "[4]": {"biological_target": "trans-membraneous proton channel domain of V-ATPase (Bos taurus, UniProt P23956+P61420+Q29466+Q2TA24)", "sequence (P61420 whole entry, other chains not shown, the tested form may be a part)": "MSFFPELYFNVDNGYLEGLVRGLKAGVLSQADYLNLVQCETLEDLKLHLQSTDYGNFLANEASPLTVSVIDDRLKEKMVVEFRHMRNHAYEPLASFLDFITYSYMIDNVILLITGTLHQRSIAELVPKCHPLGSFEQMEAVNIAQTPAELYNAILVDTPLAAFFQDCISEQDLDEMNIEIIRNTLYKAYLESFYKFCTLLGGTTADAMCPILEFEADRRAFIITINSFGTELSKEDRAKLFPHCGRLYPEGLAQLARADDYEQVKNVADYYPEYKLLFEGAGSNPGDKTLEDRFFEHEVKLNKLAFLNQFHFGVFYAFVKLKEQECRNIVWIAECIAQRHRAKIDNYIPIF", "sequence (P23956 whole entry, other chains not shown, the tested form may be a part)": "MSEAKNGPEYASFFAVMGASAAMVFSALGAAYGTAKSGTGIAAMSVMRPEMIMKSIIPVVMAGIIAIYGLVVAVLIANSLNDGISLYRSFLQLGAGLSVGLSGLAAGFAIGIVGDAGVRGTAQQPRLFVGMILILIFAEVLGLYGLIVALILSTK", "sequence (Q29466 whole entry, other chains not shown, the tested form may be a part)": "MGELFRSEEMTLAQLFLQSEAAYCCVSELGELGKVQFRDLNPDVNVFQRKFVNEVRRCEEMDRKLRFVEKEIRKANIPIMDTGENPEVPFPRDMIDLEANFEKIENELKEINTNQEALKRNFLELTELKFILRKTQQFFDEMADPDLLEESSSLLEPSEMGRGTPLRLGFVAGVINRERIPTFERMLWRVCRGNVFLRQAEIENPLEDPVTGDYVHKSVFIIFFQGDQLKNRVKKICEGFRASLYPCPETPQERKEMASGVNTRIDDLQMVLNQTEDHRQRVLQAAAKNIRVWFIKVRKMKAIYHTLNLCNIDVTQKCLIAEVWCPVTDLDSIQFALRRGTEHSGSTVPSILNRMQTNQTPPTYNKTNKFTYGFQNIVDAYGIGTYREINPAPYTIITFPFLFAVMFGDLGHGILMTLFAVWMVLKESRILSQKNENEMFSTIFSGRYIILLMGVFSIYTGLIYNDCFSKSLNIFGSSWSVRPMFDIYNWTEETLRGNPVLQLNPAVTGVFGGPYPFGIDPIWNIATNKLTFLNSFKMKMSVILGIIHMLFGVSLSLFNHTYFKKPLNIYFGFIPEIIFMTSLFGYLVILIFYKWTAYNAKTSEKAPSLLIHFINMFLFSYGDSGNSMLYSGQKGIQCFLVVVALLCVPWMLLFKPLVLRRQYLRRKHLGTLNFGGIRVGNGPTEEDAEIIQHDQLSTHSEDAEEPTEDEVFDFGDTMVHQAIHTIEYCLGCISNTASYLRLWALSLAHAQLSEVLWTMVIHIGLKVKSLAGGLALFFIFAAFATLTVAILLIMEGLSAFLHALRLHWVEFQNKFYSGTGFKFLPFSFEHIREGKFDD", "sequence (Q2TA24 whole entry, other chains not shown, the tested form may be a part)": "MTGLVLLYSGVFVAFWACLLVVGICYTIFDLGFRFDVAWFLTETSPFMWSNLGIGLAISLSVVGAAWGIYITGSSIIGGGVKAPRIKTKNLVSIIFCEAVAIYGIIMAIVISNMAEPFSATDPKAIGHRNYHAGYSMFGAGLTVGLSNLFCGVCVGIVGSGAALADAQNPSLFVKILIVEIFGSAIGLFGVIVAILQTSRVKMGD", "experiment": "Incubation with V-ATPase domains independently: proton channel domain", "type": "biochemical", "from_the_text": "Therefore, the present invention provides a method for inhibiting the proton-pumping activity of V-ATPase by contacting V-ATPase, either in vitro or in vivo with the compounds of the present invention. Inhibition of the proton-pumping activity of V-ATPase is useful, inter alia, for the treatment and prevention of cancer and osteoporosis. […] See Boyd, M. R. et al., J Pharmacol. Exp. Ther. 297, 114-120 (2001); see also, PCT publication WO 00/51589 of Boyd et al. V-ATPase is composed of an ATPase domain and a proton translocating membraneous channel. […] See Crider, Xie and Stone, J. Biol. Chem. 269:17379-17381 (1994) for the experimental procedure for binding. This was shown by incubating select compounds of the present invention with the domains independently and showing that 70% of the channel activity was inhibited at 1 nM of the compound while there was virtually no interference with ATPase activity at the same concentration. See Example 7 and Table 5 below. See also Bill. Crider, Xie and Stone, J Biol. Chem. 269:17379-17381 (1994)."}},
  "data": [
    {"compound": "CC/C=C\\C=C/C(=O)N/C=C/C[C@H]1C[C@@H](O)[C@@H](C)C/C=C/Cc2cccc(O)c2C(=O)O1", "note": "[Compound 301a, salicylihalamide A]", "values": [
      {"measurement": "mode of V-ATPase inhibition (reversibility)", "setting": "[1]", "result": "reversible inhibitor"},
      {"measurement": "anti-cancer activity against SK-MEL-28 cells", "setting": "[2]", "result": "active"},
      {"measurement": "activity / differential cytotoxicity profile in the NCI 60-cell line screen", "setting": "[3]", "result": "differential cytotoxicity profile undistinguishable from the natural product"},
      {"measurement": "binding site on V-ATPase", "setting": "[4]", "result": "membrane spanning Vo proton channel"}
    ]}
  ]
}
